Source: patent US10377828B2, “Combination therapy for neoplasia treatment” (Boehringer Ingelheim International GmbH, priority 2013, dated 2019)
“Also recorded” adds a separate entry of the source.

What was measured:
Type in all cases: cell-based, human
[1] = system: IGF-1R, AR, PTEN levels and AKT-Ser473 phosphorylation in VCaP, MDA PCa 2b and DUCaP cells; experiment: Western blot protein analysis after 24 hours of treatment; details: 24 hours treatment
Method: One×10^6 and 4×10^6 cells were plated in 6-well plates and 10 cm dishes, respectively, in medium containing 10% heat-inactivated FCS and after over night incubation the cells were treated with 1 μM of MDV-3100 and 100 nM of IGF mAb_1 or a combination of antibody and AR signaling inhibitor. After 24 hours the cells were lyzed on the plates, total protein was isolated and protein concentration was determined by Bradford assay. Cell lysates were snap frozen and stored at −80° C.
(§1) Western blotting was performed loading 30-50 μg of total protein lysates on a 4-12% Bis-Tris PAG (Bio Rad) and blotting with the Bio Rad trans-Blot® Turbo system using a PVDF membrane. […] Cell cycle regulators and markers of proliferation and apoptosis were analyzed using the following antibodies: p21 Waf1/Cip1 (12D1; #2947, Cell Signaling; 1:1000), CDK2 (78B2; #2546, Cell Signaling; 1:1000), Cyclin E (C-19; sc-198, Santa Cruz; 1:1000), PCNA (#2586, Cell Signaling; 1:2000), and PARP (#9542, Cell Signaling; 1:1000).
(§2) Antibody dilutions were prepared in 5% BSA or 5% non-fat dry milk in TBS-0.5% Tween20 (TBS-T). Following washes in TBS-T membranes were incubated with a polyclonal HRP-conjugated goat anti-rabbit secondary antibody (DAKO, #P0448) for 1 hour and after further washes in TBS-T antibody reactivity was detected by means of ECL/Super ECL (GE Healthcare) and exposure on ImageQuant LAS4000. […]

VCaP cells [2] = experiment: Cell cycle analysis using flow cytometry (propidium iodide)
Method: 4×10^5 VCaP cells were treated with 1 μM of IGF mAb_1 and 10 μM of MDV-3100, and the combination of both agents, and incubated in 6-well plates at 37° C. for 24 h, 48 h and 72 h. Subsequently, the supernatant was transferred to FACS tubes, adherent cells were detached with trypsin and collected in the respective FACS tubes. After centrifugation, the medium was discarded and the cell pellet was fixed in ice-cold 70% ethanol for a minimum of 2 h at 4° C. After removing the ethanol entirely, fixed cells were stained with propidium iodide (10 μg/ml; Sigma; P4864-10 mL) in a hypotonic buffer solution (0.1% sodium citrate, 0.1% (v/v) triton X-100, 100 μg/ml DNase-free RNase A) and incubated in the dark at room temperature for 30 minutes. Cells were analyzed using the Becton Dickinson FACS Canto II Flow cytometer and data was evaluated with the FACS Diva software.

[3] = system: AKT phosphorylation, PARP cleavage, p21, CDK2, Cyclin E, PCNA in VCaP cells; experiment: Western blot time course of AKT phosphorylation, apoptosis and cell cycle regulators
Method: One×10^6 and 4×10^6 cells were plated in 6-well plates and 10 cm dishes, respectively, in medium containing 10% […] and AR signaling inhibitor. […] Cell lysates were snap frozen and stored at −80° C.
as §1, §2

VCaP cells [4] = experiment: Analysis of cellular doubling time; details: 10 μM MDV-3100, compared to untreated controls
Method: 3×10^5 cells/well VCaP cells were seeded in 2 mL cell culture medium per well. 24 hrs post seeding the cell culture medium was removed and replaced with DMEM+10% FCS without R1881. 24 hr following the medium change the pre-treatment wells were harvested and counted with the Beckman Coulter™ Vi-CELL XR 2.03, and 10 μM of MDV-3100 was added to the remaining cells. Four times every 24 hr VCaP cell number was determined in 3 wells for each time point. The mean value was calculated from these triplicates. To determine the generation time, following formula is used: […]

VCaP cells [5] = experiment: Assessment of caspase 3 activity (apoptosis induction); details: 10 μM MDV-3100 and/or 1 μM mAb, up to 96 hours
Method: To acquire live cell images of cells undergoing caspase-3/7 mediated apoptosis upon treatment with different concentrations of MDV-3100, IGF mAb_1, and the combination of both agents, the CellPlayer™ 96-Well Kinetic Caspase-3/7 Reagent (Essen BioScience; #4440) was used. 50000 VCaP cells/100 μl/well were seeded and treated on the next day with the respective concentrations of both agents in growth medium in the absence of R1881. The Caspase-3/7 reagent was diluted to a final concentration of 5 μM in 100 μl per well of growth medium and added to the medium. The plate was placed within a microplate tray into the IncuCyte™ 2011A and 3 images per well were acquired every 4 hours for 7 days using the phase contrast and fluorescence channels.

VCaP cells [6] = experiment: Thymidine incorporation assay; details: 96 hours, 10 μM MDV-3100 and/or 1 μM IGF mAb_1, compared to untreated controls
Method: VCaP cells were treated with 1 μM of IGF mAb_1 and 10 μM of MDV-3100 and the combination of both agents and incubated as triplicates in flat-bottom 96-well plates for 96 hours at a density of 5×10^4 cells per well, in the absence of R1881. For the last 24 hours of incubation, ^3H-thymidine (0.4 μCi/well; PerkinElmer, NET355001 MC) was added. Afterwards, the plates were frozen and incubated at −20° C. for 24 h. For harvesting, the plates were thawed and 40 μL Trypsin was added to each well to detach the cell fragments. The suspension was transferred to filter plates. The plates were then washed three times with distilled water and dried at 60° C. for 3 h. 25 μL per well Microscint were added and the proliferation rate was determined by measuring thymidine incorporation (CPM; counts per minute) using a liquid scintillation counter (1450 Microbeta Wallac Trilux, Perkin-Elmer).

MDA PCa 2b cells = experiment: 2D cell proliferation assay (CellTiter-Glo); details: 10% FCS-containing growth medium, 5 days, single agent or combination
Method: (§3) The following method was used to determine the inhibitory effect of IGF ligand-neutralizing mAbs and androgen signaling inhibitors on the growth of prostate cancer cell lines. Assays were performed in cell growth medium containing 10% serum.
(§4) Adherent cells were detached with trypsin/EDTA solution (GIBCO, #043-9031 FU), resuspended in growth medium, centrifuged, resuspended in assay medium (supplemented with 10% heat inactivated FCS and 2 mM L-glutamine) and diluted to 5,000-40,000 cells per mL. 100 μL/well cell suspension was added to each well of a sterile flat-bottom white 96-well plate (PerkinElmer, #6005280) and plates were incubated overnight in a humidified incubator set at +37° C. and 5% CO2. On the next day supernatants were aspirated and 35 μL/well assay medium was added to all wells.
(§5) Serial dilutions of IGF mAb_1 and mAb_2 (1 μM highest concentration), MDV-3100 (10 μM highest concentration), abiraterone acetate (100 μM highest concentration) were prepared on a separate plate in assay medium (no growth factors or hormones supplemented). All agents were tested as single agents or in combination. All samples were tested in triplicate wells (100 μL/well assay). Plates were incubated for 5 days in a humidified incubator at +37° C. and 5% CO2. After this incubation period, CellTiter-Glo buffer, substrate and test plates were equilibrated to RT. CellTiter-Glo is a bioluminescent assay (Promega, #G7571) designed to determine the number of viable cells in culture, in which the generation of a luminescent signal is proportional to the amount of ATP present in cells. 100 μL of freshly mixed CellTiter-Glo reagent was added to each well. After 2 min on an orbital shaker (MTS 2/4, IKA) and 10 min incubation at RT, luminescence was recorded (luminescence reader (Genios Pro, Tecan or Victor X4, Perkin Elmer), integration time 1 sec).

DUCaP cells = experiment: 2D cell proliferation assay (CellTiter-Glo); details: 10% FCS-containing growth medium, 5 days, single agent or combination
Method: as §3, §4, §5

VCaP cells [7] = experiment: 2D cell proliferation assay (CellTiter-Glo); details: 10% FCS-containing growth medium, 5 days, single agent or combination
Method: as §3, §4, §5

VCaP cells [8] = experiment: 3D soft agar cell proliferation assay; details: single agent or combination
Method: IGF mAb_2 was used for the treatment of VCaP cells in FIG. 2B. FIG. 2C (IGF mAb_1) and FIG. 2D (IGF mAb_2) show the results of MDA PCa 2b cells. […] In a 3D soft agar cell proliferation assay (FIG. 2G), VCaP cells were treated with abiraterone acetate and IGF mAb_2.

Row | Structure (SMILES) | AR protein levels [1] | IGF-1R levels [1] | G1/G0 population (VCaP cells [2]; 10 μM MDV-3100, compared to untreated controls) | sub-G1 apoptotic cell population (VCaP cells [2]; 24 h, 48 h and 72 h, 10 μM MDV-3100 and/or 1 μM mAb) | p21 levels ([3]; 10 μM MDV-3100, at 8 and 24 hours) | PARP cleavage ([3]; 10 μM MDV-3100 and/or 1 μM IGF mAb_1, 8 h, 24 h, 48 h and 72 h) | cellular doubling time (generation time) (VCaP cells [4]) | induction of caspase 3 activity / apoptosis (in words) (VCaP cells [5]) | reduction of proliferative activity (thymidine incorporation) (VCaP cells [6]) | effect on 2D cell proliferation (in words) (MDA PCa 2b cells) | effect on 2D cell proliferation (in words) (DUCaP cells) | effect on 2D cell proliferation (in words) (VCaP cells [7]) | effect on 3D cell proliferation (in words) (VCaP cells [8])
1 | CNC(=O)c1ccc(N2C(=S)N(c3ccc(C#N)c(C(F)(F)F)c3)C(=O)C2(C)C)cc1F [MDV-3100, 4-{3-[4-cyano-3-(trifluoromethyl)phenyl]-5,5-dimethyl-4-oxo-2-sulfanylideneimidazolidin-1-yl}-2-fluoro-N-methylbenzamide] | slightly increased | slightly decreased | increased | did not induce; also recorded: does not change | increased | did not induce | prolonged cellular doubling time | did not induce caspase 3 activity | approximately 50% | inhibition of cell proliferation | inhibition of cell proliferation | inhibition of cell proliferation | –
2 | CC(=O)O[C@H]1CC[C@@]2(C)C(=CC[C@@H]3[C@@H]2CC[C@]2(C)C(c4cccnc4)=CC[C@@H]32)C1 [abiraterone acetate] | – | – | – | – | – | – | – | – | – | inhibition of cell proliferation at higher concentrations | inhibition of cell proliferation at higher concentrations | inhibition of cell proliferation at higher concentrations | inhibition of cell proliferation at higher concentrations
